Patent publication US20110136853A1, “LIGAND WITH A BROAD SPECTRUM OF PHARMACOLOGICAL ACTIVITY, A PHARMACEUTICAL COMPOSITION, A MEDICINAL AGENT AND A METHOD OF TREATMENT” (priority 2008, published 2011)
Marks after values point to notes of the source that are not given here.

How the values were obtained:
dopamine D2L = target: T1, dopamine D2L (Homo sapiens, UniProt P14416); experiment: radioligand displacement, dopamine D2L; format: binding; conditions: human being, ligand 10 μM, duplicates
T1 construct: MDS Pharma Services (contract laboratory)
T1 sequence (P14416 whole entry): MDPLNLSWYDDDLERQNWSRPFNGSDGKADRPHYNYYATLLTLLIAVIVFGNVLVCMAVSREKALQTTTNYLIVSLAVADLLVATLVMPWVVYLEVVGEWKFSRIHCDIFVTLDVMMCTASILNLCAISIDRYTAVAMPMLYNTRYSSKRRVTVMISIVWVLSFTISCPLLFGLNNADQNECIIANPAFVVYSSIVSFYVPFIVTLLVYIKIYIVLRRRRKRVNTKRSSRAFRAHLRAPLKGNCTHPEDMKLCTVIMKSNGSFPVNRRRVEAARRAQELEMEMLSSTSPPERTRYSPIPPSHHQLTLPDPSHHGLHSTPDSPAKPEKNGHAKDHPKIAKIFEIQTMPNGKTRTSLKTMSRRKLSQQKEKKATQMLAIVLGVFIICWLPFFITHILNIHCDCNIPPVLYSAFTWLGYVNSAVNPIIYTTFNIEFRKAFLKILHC
Experimental: (§1) The firm MDS Pharma Services [http://www.mdsps.com] carried out this test in duplicates at ligand concentration 10 μM by the displacement of the corresponding radioactive-labeled ligand. Test results, expressed in percent of ligand replacement (%), represented in Table 2 and in FIG. 1.

dopamine D3 = target: T2, dopamine D3 (Homo sapiens, UniProt P35462); experiment: radioligand displacement, dopamine D3; format: binding; conditions: dopamine D3, human being; ligand 10 μM, duplicates
T2 construct: MDS Pharma Services (contract laboratory)
T2 sequence (P35462 whole entry): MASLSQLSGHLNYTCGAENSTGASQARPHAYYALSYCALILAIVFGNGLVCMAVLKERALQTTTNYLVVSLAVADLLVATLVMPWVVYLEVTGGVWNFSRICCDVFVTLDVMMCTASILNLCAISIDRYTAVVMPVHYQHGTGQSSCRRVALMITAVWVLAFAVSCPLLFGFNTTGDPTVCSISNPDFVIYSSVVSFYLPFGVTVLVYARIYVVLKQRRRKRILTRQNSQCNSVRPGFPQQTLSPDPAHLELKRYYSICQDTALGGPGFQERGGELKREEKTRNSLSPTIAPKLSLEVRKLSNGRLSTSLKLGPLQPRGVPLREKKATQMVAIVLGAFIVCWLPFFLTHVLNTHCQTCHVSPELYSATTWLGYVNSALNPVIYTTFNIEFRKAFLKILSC
Experimental: as §1

serotonin 5-HT7 = target: T3, serotonin 5-HT7 (Homo sapiens, UniProt P34969); experiment: radioligand displacement, serotonin 5-HT7; format: binding; conditions: serotonin 5-HT7, human being; ligand 10 μM, duplicates
T3 construct: MDS Pharma Services (contract laboratory)
T3 sequence (P34969 whole entry): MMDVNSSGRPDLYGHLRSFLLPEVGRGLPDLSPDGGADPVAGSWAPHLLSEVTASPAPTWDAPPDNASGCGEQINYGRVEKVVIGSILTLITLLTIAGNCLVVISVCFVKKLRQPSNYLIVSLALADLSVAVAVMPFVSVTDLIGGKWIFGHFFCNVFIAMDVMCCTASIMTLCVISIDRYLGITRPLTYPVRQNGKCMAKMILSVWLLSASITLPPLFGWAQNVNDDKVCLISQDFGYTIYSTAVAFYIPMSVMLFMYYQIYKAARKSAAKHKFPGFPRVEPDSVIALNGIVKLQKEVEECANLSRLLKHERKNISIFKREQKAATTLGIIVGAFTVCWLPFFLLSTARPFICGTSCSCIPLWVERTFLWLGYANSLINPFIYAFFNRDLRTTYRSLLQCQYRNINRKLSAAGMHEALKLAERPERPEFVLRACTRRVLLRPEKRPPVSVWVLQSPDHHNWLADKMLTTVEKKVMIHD
Experimental: as §1

serotonin 5-HT2B = target: T4, serotonin 5-HT2B (Homo sapiens, UniProt P41595); experiment: radioligand displacement, serotonin 5-HT2B; format: binding; conditions: human being, ligand 10 μM, duplicates
T4 construct: MDS Pharma Services (contract laboratory)
Experimental: as §1

sigma σ1 = target: T5, sigma σ1 (Homo sapiens, UniProt Q99720); experiment: radioligand displacement, sigma σ1; format: binding; conditions: sigma σ1, human being; ligand 10 μM, duplicates
T5 construct: MDS Pharma Services (contract laboratory)
Experimental: as §1

histamine H2 = target: T6, histamine H2 (Homo sapiens, UniProt P25021); experiment: radioligand displacement, histamine H2; format: binding; conditions: histamine H2, human being; ligand 10 μM, duplicates
T6 construct: MDS Pharma Services (contract laboratory)
T6 sequence (P25021 whole entry): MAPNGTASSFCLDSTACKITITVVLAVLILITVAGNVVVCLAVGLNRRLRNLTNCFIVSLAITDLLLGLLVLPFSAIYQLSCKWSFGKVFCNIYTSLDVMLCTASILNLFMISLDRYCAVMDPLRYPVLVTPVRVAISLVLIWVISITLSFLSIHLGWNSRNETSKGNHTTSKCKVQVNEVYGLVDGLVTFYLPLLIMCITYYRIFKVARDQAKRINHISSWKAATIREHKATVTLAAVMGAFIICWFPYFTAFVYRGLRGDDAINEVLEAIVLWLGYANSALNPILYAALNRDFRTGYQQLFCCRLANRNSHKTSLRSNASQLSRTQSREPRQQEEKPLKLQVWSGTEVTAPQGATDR
Experimental: as §1

adrenergic α1A = target: T7, adrenergic α1A (Rattus norvegicus, UniProt P43140); experiment: radioligand displacement, adrenergic α1A; format: binding; conditions: ligand 10 μM, duplicates
T7 construct: MDS Pharma Services (contract laboratory)
T7 sequence (P43140 whole entry): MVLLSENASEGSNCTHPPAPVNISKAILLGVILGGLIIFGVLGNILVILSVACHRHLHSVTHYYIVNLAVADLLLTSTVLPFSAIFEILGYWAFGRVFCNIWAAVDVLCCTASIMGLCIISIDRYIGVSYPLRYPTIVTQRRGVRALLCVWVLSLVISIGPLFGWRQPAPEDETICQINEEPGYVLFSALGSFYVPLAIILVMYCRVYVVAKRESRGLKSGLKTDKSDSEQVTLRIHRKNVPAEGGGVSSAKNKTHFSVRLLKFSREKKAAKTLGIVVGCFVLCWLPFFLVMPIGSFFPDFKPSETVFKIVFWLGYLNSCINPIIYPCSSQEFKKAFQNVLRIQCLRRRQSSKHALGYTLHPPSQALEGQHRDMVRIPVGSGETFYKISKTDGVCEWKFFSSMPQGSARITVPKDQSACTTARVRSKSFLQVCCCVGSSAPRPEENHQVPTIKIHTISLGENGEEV
Experimental: as §1

serotonin 5-HT2C = target: T8, serotonin 5-HT2C (Homo sapiens, UniProt P28335); experiment: radioligand displacement, serotonin 5-HT2C; format: binding; conditions: human being, ligand 10 μM, duplicates
T8 construct: MDS Pharma Services (contract laboratory)
T8 sequence (P28335 33-458): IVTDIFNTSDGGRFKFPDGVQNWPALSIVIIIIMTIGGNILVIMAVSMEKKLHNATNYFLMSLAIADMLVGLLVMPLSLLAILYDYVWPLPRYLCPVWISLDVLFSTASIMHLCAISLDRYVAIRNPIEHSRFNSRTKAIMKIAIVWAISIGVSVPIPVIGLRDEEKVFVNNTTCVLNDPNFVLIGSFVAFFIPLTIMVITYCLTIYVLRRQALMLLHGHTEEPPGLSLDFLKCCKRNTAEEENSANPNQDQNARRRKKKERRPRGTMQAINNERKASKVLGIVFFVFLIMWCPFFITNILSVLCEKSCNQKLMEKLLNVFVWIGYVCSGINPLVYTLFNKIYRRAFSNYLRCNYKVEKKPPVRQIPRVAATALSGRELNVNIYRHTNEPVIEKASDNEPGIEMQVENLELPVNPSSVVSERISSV
Experimental: as §1

[1] = target: T9, dopamine transporter (DAT) (Homo sapiens, UniProt Q01959); experiment: radioligand displacement, dopamine transporter; format: binding; conditions: human being, ligand 10 μM, duplicates
T9 construct: MDS Pharma Services (contract laboratory)
Experimental: as §1

adrenergic β2 = target: T10, adrenergic β2 (Homo sapiens, UniProt P07550); experiment: radioligand displacement, adrenergic β2; format: binding; conditions: adrenergic β2, human being; ligand 10 μM, duplicates
T10 construct: MDS Pharma Services (contract laboratory)
T10 sequence (P07550 whole entry): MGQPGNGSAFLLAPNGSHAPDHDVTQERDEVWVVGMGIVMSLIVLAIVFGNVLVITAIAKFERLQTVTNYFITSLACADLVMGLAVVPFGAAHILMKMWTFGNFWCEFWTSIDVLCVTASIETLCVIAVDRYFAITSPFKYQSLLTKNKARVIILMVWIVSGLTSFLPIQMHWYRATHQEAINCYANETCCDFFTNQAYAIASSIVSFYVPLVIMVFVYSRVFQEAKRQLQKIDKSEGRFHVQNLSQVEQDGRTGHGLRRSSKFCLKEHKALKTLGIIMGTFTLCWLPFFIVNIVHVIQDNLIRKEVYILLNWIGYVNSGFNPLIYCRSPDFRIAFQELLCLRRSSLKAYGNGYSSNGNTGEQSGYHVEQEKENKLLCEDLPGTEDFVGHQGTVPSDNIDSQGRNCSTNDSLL
Experimental: as §1

serotonin 5-HT6 = target: T11, serotonin 5-HT6 (Homo sapiens, UniProt P50406); experiment: radioligand displacement, serotonin 5-HT6; format: binding; conditions: serotonin 5-HT6, human being; ligand 10 μM, duplicates
T11 construct: MDS Pharma Services (contract laboratory)
T11 sequence (P50406 whole entry): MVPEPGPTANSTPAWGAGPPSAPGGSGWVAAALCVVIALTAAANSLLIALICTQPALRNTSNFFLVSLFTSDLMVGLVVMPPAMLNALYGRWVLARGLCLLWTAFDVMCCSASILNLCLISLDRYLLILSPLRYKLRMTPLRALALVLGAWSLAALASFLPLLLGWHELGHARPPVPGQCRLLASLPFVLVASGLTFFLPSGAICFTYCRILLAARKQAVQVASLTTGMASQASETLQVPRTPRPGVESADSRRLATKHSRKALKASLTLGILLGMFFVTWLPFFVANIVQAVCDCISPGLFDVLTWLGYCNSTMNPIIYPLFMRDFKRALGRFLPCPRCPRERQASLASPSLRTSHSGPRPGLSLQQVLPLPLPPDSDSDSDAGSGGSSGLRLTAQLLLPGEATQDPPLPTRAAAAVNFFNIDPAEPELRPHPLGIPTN
Experimental: as §1

adrenergic α2A = target: T12, adrenergic α2A (Homo sapiens, UniProt P08913); experiment: radioligand displacement, adrenergic α2A; format: binding; conditions: human being, ligand 10 μM, duplicates
T12 construct: MDS Pharma Services (contract laboratory)
T12 sequence (P08913 whole entry): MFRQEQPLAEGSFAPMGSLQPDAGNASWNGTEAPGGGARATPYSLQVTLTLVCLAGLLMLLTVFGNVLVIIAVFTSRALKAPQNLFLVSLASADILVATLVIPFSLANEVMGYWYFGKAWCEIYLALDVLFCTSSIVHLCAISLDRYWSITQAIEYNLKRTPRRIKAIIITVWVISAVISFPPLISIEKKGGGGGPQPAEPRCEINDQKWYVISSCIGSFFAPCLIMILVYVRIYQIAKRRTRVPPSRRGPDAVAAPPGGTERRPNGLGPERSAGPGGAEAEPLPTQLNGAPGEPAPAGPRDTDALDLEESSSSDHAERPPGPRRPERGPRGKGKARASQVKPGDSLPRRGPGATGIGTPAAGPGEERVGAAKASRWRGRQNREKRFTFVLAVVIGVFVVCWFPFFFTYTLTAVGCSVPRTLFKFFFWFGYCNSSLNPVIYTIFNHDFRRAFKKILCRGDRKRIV
Experimental: as §1

[2] = target: T13, norepinephrine transporter (NET) (Homo sapiens, UniProt P23975); experiment: radioligand displacement, norepinephrine transporter; format: binding; conditions: human being, ligand 10 μM, duplicates
T13 construct: MDS Pharma Services (contract laboratory)
Experimental: as §1

dopamine D2S = target: T14, dopamine D2S (Homo sapiens, UniProt P14416); experiment: radioligand displacement, dopamine D2S; format: binding; conditions: human being, ligand 10 μM, duplicates
T14 construct: MDS Pharma Services (contract laboratory)
Experimental: as §1

sodium channel, site 2 = experiment: radioligand displacement, sodium channel site 2; format: binding; conditions: site 2, rat, ligand 10 μM, duplicates
Experimental: as §1

dopamine D1 = target: T15, dopamine D1 (Homo sapiens, UniProt P21728); experiment: radioligand displacement, dopamine D1; format: binding; conditions: dopamine D1, human being; ligand 10 μM, duplicates
T15 construct: MDS Pharma Services (contract laboratory)
Experimental: as §1

histamine H1 = target: T16, histamine H1 (Homo sapiens, UniProt P35367); experiment: radioligand displacement, histamine H1; format: binding; conditions: histamine H1, human being; ligand 10 μM, duplicates
T16 construct: MDS Pharma Services (contract laboratory)
T16 sequence (P35367 whole entry): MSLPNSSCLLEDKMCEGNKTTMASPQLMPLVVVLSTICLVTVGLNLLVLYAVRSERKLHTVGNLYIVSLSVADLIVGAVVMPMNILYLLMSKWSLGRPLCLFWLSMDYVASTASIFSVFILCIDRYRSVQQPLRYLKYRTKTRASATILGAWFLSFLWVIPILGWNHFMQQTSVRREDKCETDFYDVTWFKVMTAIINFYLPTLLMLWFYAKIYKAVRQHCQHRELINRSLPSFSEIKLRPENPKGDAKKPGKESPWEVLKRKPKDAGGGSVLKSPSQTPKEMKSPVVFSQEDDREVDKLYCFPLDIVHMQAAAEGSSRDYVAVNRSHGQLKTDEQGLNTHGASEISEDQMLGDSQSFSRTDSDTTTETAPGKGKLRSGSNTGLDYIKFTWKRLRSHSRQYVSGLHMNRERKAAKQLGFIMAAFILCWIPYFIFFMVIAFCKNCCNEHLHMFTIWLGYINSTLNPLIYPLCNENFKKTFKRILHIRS
Experimental: as §1

[3] = test system: calcium channel of L-type, benzothiazepine; experiment: radioligand displacement, L-type calcium channel (benzothiazepine); format: binding; conditions: rat, ligand 10 μM, duplicates
Experimental: as §1

adrenergic α1B = target: T17, adrenergic α1B (Rattus norvegicus, UniProt P15823); experiment: radioligand displacement, adrenergic α1B; format: binding; conditions: ligand 10 μM, duplicates
T17 construct: MDS Pharma Services (contract laboratory)
T17 sequence (P15823 whole entry): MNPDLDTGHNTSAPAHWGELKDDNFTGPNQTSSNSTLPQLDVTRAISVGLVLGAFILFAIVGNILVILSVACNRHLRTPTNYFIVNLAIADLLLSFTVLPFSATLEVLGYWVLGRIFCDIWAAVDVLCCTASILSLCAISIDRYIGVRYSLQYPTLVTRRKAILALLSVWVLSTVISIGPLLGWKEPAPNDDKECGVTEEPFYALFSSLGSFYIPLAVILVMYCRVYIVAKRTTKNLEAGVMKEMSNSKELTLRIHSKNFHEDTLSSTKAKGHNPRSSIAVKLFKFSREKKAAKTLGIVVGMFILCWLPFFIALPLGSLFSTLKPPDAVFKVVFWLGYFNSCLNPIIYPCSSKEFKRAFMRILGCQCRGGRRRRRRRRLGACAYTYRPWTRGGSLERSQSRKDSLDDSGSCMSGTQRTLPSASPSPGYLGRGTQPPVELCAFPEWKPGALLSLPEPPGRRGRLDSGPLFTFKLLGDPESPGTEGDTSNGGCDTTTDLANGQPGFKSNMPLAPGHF
Experimental: as §1

sigma σ2 = target: T18, sigma σ2 (Rattus norvegicus, UniProt Q5U3Y7); experiment: radioligand displacement, sigma σ2; format: binding; conditions: ligand 10 μM, duplicates
T18 construct: MDS Pharma Services (contract laboratory)
Experimental: as §1

serotonin 5-HT1B = target: T19, serotonin 5-HT1B (Homo sapiens, UniProt P28222); experiment: radioligand displacement, serotonin 5-HT1B; format: binding; conditions: human being, ligand 10 μM, duplicates
T19 construct: MDS Pharma Services (contract laboratory)
Experimental: as §1

male mice of BALB/c line = experiment: Mice Behavior in the Elevated Plus Maze; format: in vivo; conditions: 5 minutes, FIG. 8-10
Experimental: The length of maze arms makes 30 cm, the width 5 cm, height of walls 15 cm. Two opposite arms are closed from sides and end walls with prasparent walls, the two others are lighted and opened. A mouse was placed in the maze center and during 5 minutes the number of opened and closed arm entries and the time spent by the animals in opened and closed arms were registered. On this evidence indexes of opened arms preference were calculated as a ratio of the number of opened arm entries and also duration of their stay in the opened arms to the total number of entries into all of arms and duration of stay in them. Being in normal state animals avoid opened arms (index of preference makes 0.2-0.3). Compounds with anxiolytic activity (tranquilizing activity) run this value up to 0.5-0.6 and more, and also decrease the number of defecations without changing overall physical activity (general number of arm entries).

% of radioactive-labeled ligand replacement (dopamine D2L): 51%
% of radioactive-labeled ligand replacement (dopamine D3): 80%
% of radioactive-labeled ligand replacement (serotonin 5-HT7): 76%
% of radioactive-labeled ligand replacement (serotonin 5-HT2B): 52%
% of radioactive-labeled ligand replacement (sigma σ1): 75%
% of radioactive-labeled ligand replacement (histamine H2): 97%
% of radioactive-labeled ligand replacement (adrenergic α1A): 70%
% of radioactive-labeled ligand replacement (serotonin 5-HT2C): 79%
% of radioactive-labeled ligand replacement [1]: 99%
% of radioactive-labeled ligand replacement (adrenergic β2): 76%
% of radioactive-labeled ligand replacement (serotonin 5-HT6): 79%
% of radioactive-labeled ligand replacement (adrenergic α2A): 100%
% of radioactive-labeled ligand replacement [2]: 67%
% of radioactive-labeled ligand replacement (dopamine D2S): 60%
% of radioactive-labeled ligand replacement (sodium channel, site 2): 93%
% of radioactive-labeled ligand replacement (dopamine D1): 62%
% of radioactive-labeled ligand replacement (histamine H1): 97%
% of radioactive-labeled ligand replacement [3]: 65%
% of radioactive-labeled ligand replacement (adrenergic α1B): 70%
% of radioactive-labeled ligand replacement (sigma σ2): 52%
% of radioactive-labeled ligand replacement (serotonin 5-HT1B): 64* %
SMILES: CN1CCc2c(c3ccccc3n2Cc2ccccc2)C1 [formula 1, 3-methyl-9-benzyl-1,2,3,4-tetrahydrocarboline naphthalene-1,5-disulfonate]
anxiolytic (tranquilizing) action (male mice of BALB/c line): anxiolytic (tranquilizing) activity comparable with the activity of Buspirone and Lorazepam
